Holding throughout (assay): inhibition of tumour cell growth, NCI panel, 48 h
Assay [1] deals with 786-0 renal.
The subject of assay [2] is BT-549 breast.
The subject of assay [3] is CCRF-CEM leukemia.
Assay [4] has as its system COLO 205 colon.
In assay [5] the test system is HCT-116 colon.
For assay [6], the system named is HOP-92 NSCLC.
Assay [7] concerns HT29 colon.
For assay [8], the system named is LOX IMVI melanoma.
For assay [9], the system named is MCF7 breast.
The subject of assay [10] is MDA-N.
In assay [11] the test system is NCI-H226 lung.
In assay [12] the test system is OVCAR-4 ovarian.
Assay [13] concerns OVCAR-5 ovarian.
Assay [14] has as its system SF-268 CNS.
The subject of assay [15] is SF-295 CNS.
Assay [16] has as its system SF-539 CNS.
For assay [17], the system named is SR leukemia.
Assay [18] deals with TK-10 renal.
Assay [19] relates to UACC-257 melanoma.
Assay [20] has as its system UO-31 renal.

Molecules are shown by their SMILES.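 Exposure lasted 48 hours, with cells grown in 96-well plates and compounds tested at five concentrations. TGI: total growth inhibition.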 A value given as a limit tells only on which side of the number the result lay.

Regarding `NN/C(=N\S(=O)(=O)c1cc(S(=O)(=O)c2ccccc2)cs1)Nc1ccc(Cl)cc1`, the TGI in [1] was > 100 µM; in [2], > 100 µM; in [3], 69.2 µM; in assay [4], 43.4 µM; in [5] it was 74.6 µM; in assay [6], > 100 µM. Moreover, the TGI in assay [7] was > 100 µM; in [8], 54.9 µM; in [9], > 100 µM; in assay [10] it was 59.2 µM; in assay [11] it was > 100 µM; in [12], 66.5 µM. Also, the TGI in [13] was > 100 µM; in [14], 89 µM; in [15] it was 75.5 µM; in assay [16] it was > 100 µM; in [17] it was 48.5 µM; in assay [18], 81.7 µM. In addition, the TGI in [19] was 47.5 µM; in [20], > 100 µM.

Turning to `O=C(O[C@H](/C=C/c1ccccc1)P1(=O)N(Cc2ccccc2)[C@H]2CCCC[C@@H]2N1Cc1ccccc1)c1ccccc1`, the TGI in [1] was > 100 µM; in assay [2] it was > 100 µM; in [3], > 100 µM; in assay [4] it was 3.27 µM; in assay [5] it was 17 µM; in assay [6] it was 5.86 µM. Besides, the TGI in assay [7] was > 100 µM; in assay [8] it was 11.6 µM; in [9], > 100 µM; in [10] it was > 100 µM; in [11] it was 7.85 µM; in assay [12] it was 6.19 µM. Moreover, the TGI in [13], in assay [14], in assay [15], in assay [16], in [17] and in assay [18] was > 100 µM throughout. In addition, the TGI was > 100 µM in [19] and 38.3 µM in [20].

With `O=C(NCCc1ccccn1)c1ccc2cc(C(=O)N3CC(CCl)c4ccc([N+](=O)[O-])cc43)[nH]c2c1` (stereo not given), the TGI in assay [1] was > 63 µM; in assay [2], > 100 µM; in [3], > 100 µM; in assay [4] it was > 100 µM; in assay [5], > 100 µM; in assay [6], 52.1 µM. In addition, the TGI in assay [7] was > 100 µM; in [8] it was > 100 µM; in [9], > 100 µM; in assay [10], > 100 µM; in assay [11], > 100 µM; in assay [12] it was 48.3 µM. For the same compound, the TGI was > 100 µM in [13]; > 100 µM in assay [14]; > 68.5 µM in [15]; > 100 µM in [16]; > 100 µM in assay [17]; 66.7 µM in [18]. Moreover, the TGI was > 100 µM in [19] and > 92.8 µM in [20].

As for `CC(=O)n1nc(-c2[nH]c(C)c(-c3nn(C(C)=O)c(=S)o3)c2C)oc1=S`, the TGI in [1] was > 100 µM; in assay [2], > 100 µM; in [3], > 71.4 µM; in assay [4], > 100 µM; in [5] it was > 100 µM; in [6], > 100 µM. Also, the TGI in [7], in [8], in assay [9], in assay [10], in [11] and in assay [12] was > 100 µM in each case. The TGI in assay [13], in [14], in [15], in assay [16], in assay [17] and in [18] was > 100 µM in each case. The TGI in assay [19] and in assay [20] was > 100 µM throughout.

Take `C[C@H]1[C@H]2[C@H](C[C@@]3(C)C4=CC[C@H]5C(C)(C)[C@@H](OC6OCC(O)C(O)C6O)CC[C@@]56C[C@@]46CC[C@]23C)O[C@@]2(O)[C@@H]1OC(C)(C)[C@H]2O` (stereo not given in full): the TGI in [1] was found to be 2.76 µM; in assay [2], 8.78 µM; in [3] it was 3.24 µM; in assay [4], 16.1 µM; in assay [5] it was 4.21 µM; in assay [6], 3.28 µM. For the same compound, the TGI in assay [7] stood at 8.97 µM; in assay [8], 6.28 µM; in [9], 1.72 µM; in [10], 7.48 µM; in assay [11], 6.73 µM; in assay [12] it was 7.17 µM. Further, the TGI in [13] is 11.5 µM; in [14] it was 6.35 µM; in [15], 6.47 µM; in [16] it was 6.88 µM; in assay [17] it was 9.01 µM; in [18], 3.95 µM. Further, the TGI in assay [19] worked out at 4.7 µM; in assay [20], 10.2 µM.

On to `COC(=O)CSc1cc(Cl)c(C)cc1S(=O)(=O)Nc1n[nH]c(N)n1`, for which the TGI in assay [1], in [2], in [3], in [4], in [5] and in assay [6] was > 10 µM each time. In addition, the TGI in [7], in [8], in [9], in assay [10], in [11] and in assay [12] was > 10 µM throughout. The TGI in assay [13], in assay [14], in [15], in assay [16], in assay [17] and in assay [18] was > 10 µM throughout. In addition, the TGI in assay [19] and in assay [20] was > 10 µM throughout.

Take `O=C1NC(=Nc2ccccc2Cl)N/C1=C\c1c(Cl)cccc1Cl`: the TGI in [1] was > 100 µM; in assay [2], > 100 µM; in [3], > 100 µM; in assay [4] it was 56.2 µM; in [5], 67.1 µM; in [6], 61.8 µM. In addition, the TGI in assay [7] was > 100 µM; in assay [8], > 100 µM; in assay [9], > 100 µM; in assay [10] it was > 100 µM; in [11] it was > 100 µM; in [12] it was 49.3 µM. Further, the TGI is 83.7 µM in assay [13]; > 100 µM in assay [14]; > 100 µM in assay [15]; > 100 µM in assay [16]; 48 µM in assay [17]; 71.7 µM in [18]. For the same compound, the TGI in assay [19] is 79.8 µM; in assay [20] it was 66.3 µM.

Take `O=[N+]([O-])c1ccccc1S(=O)(=O)c1cccc2c1NCCC2`: the TGI in assay [1], in assay [2], in assay [3], in assay [4], in assay [5] and in assay [6] was > 100 µM each time. In addition, the TGI in [7], in [8], in assay [9], in [10], in assay [11] and in assay [12] was > 100 µM throughout. The TGI in assay [13], in [14], in assay [15], in assay [16], in [17] and in [18] was > 100 µM each time. Besides, the results for the TGI in [19] and in [20] were 63.2 µM and > 100 µM, respectively.

Regarding `COC1=CC(=O)C2=C(C1=O)[C@H]1CC[C@]3(C)C(=O)CC[C@H]3[C@@H]1CC2`, the TGI in assay [1] was 53.2 µM; in assay [2] it was 71.2 µM; in assay [3], 26.9 µM; in assay [4], > 100 µM; in assay [5], 34.1 µM; in [6], 35.8 µM. Besides, the TGI in assay [7] stood at 75.3 µM; in assay [8], 35.4 µM; in assay [9] it was 35.4 µM; in [10] it was 65.1 µM; in [11], 49.7 µM; in assay [12] it was 29.5 µM. The TGI is 44.6 µM in assay [13]; 46.3 µM in assay [14]; > 100 µM in assay [15]; 38.1 µM in assay [16]; > 100 µM in assay [17]; > 100 µM in assay [18]. For the same compound, the TGI came to 58.7 µM in assay [19] and 56.8 µM in assay [20].

As to `COc1ccc(/C(=N/Nc2nc3ccccc3n2Cc2ccccc2)C(=O)O)cc1`, the TGI in [1] was 42.3 µM; in assay [2], > 100 µM; in [3], 27.8 µM; in [4], > 100 µM; in assay [5], > 100 µM; in assay [6], 49.1 µM. For the same compound, the TGI was > 100 µM in [7]; 35.5 µM in assay [8]; 51.2 µM in assay [9]; > 100 µM in [10]; 63 µM in assay [11]; 62.2 µM in [12]. Moreover, the TGI in assay [13] is > 100 µM; in [14], 63.2 µM; in [15], > 100 µM; in assay [16] it was 85.1 µM; in assay [17], 9.88 µM; in assay [18], > 100 µM. In addition, the TGI is > 100 µM in assay [19] and 76.5 µM in assay [20].
